Results from patent US20050069907A1, “Methods for using double-mutant RNA polymerases with reduced discrimination between non-canonical and canonical nucleoside triphosphates” (priority 2002, published 2005).

Tests used:
RNA as a template = conditions: cited from earlier work
Bgl II-cut pPK5 = test: Run-off transcription with 2′-OMe- or 2′-azido-NTPs on Bgl II-cut pPK5; type: biochemical
Protocol: (§1) RNAPs were prepared as described (Brieba, L G, and Sousa, R. Biochemistry, 39: 919-923, 2000). Transcription reactions were carried out for 30 min. at room temperature in 40 mM Tris-Cl, pH 8.0, 6 mM MgCl2, 10 mM NaCl, 2 mM spermidine, with templates at 10^−7 M and RNAPs at 2×10^−7 M. All NTPs were used at 0.5 mM, and transcripts were labeled by inclusion of 1% v/v 800 Ci/mM […] in the reaction. Modified NTPs were from Trilink Biotechnologies. Reactions were stopped by addition of an equal volume of 90% formamide, 50 mM EDTA, 0.01% xylene cyanol, resolved by electrophoresis in 20% acrylamide, 1% bis-acrylamide, 1×TBE gels, and visualized on a Molecular Dynamics Phosphorimager.
The ability of the wild-type, Y639F and Y639F/H784A mutants to utilize 2′-OMe-UTP and 2′-OMe-CTP, and 2′-azido-UTP and 2′-azido-CTP in RNA synthesis was tested. On a Bgl II-cut pPK5 (Mentesanas, P. E., et al., “Characterization of Bacteriophage T7 RNA Polymerase Elongation Complexes,” J. Mol. Biol. 302:1049-1062, 2000) template in which CTP and UTP are first incorporated at +14 and +15, respectively, the wild-type enzyme can synthesize 34 nucleotide (nt) run-off transcripts in reactions in which UTP is replaced with 2′-OMe-UTP (FIG. 2a, lane 2) or in reactions in which CTP is replaced with 2′-OMe-CTP (FIG. 2a, lane 3). Relative to the reaction with 4 NTPs (FIG. 2a, lane 1), yields of run-off transcripts are reduced 6-fold and 21-fold in the 2′-OMe-UTP and 2′-OMe-CTP reactions, respectively. When both UTP and CTP are replaced with the corresponding 2′-OMe-NTPs, run-off transcription with the wild-type enzyme is undetectable (FIG. 2a, lane 4). Terminated transcripts are seen in these reactions at positions where 2′-OMe-UMP or 2′-OMe-CMP are incorporated (FIG. 2a, lanes 2-4). The Y639F mutation enhances utilization of the 2′-OMe-NTPs: relative to reactions with 4 NTPs (FIG. 2a, lane 5) runoff transcription with Y639F is reduced, respectively: 2-fold, 8-fold, and 55-fold in reactions with 2′-OMe-UTP, 2′-OMe-CTP, or both (FIG. 2a, lanes 6-8). With the Y639F/H784A double mutant the reduction in run-off transcript synthesis is <15% in reactions with 2′-OMe-UTP (FIG. 2a, lane 10), and only 3-fold and 6-fold in reactions with, respectively, 2′-OMe-CTP or both 2′-OMe-UTP and 2′-OMe-CTP (FIG. 2a, lanes 11, 12).
Identical experiments were carried out with 2′-azido-UTP or 2′-azido-CTP replacing UTP or CTP, respectively (FIG. 2b). With the wild-type enzyme, run-off transcription was reduced 15- and 50-fold in reactions with 2′-azido-UTP or 2′-azido-CTP, respectively (FIG. 2b; lanes 2, 3), and was undetectable in reactions with both 2′-azido-UTP and 2′-azido-CTP (FIG. 2b; lane 4). With Y639F, use of 2′-azido-UTP or 2′-azido-CTP reduced run-off transcription by 70% (FIG. 2b; lanes 6, 7) compared to reactions with 4 NTPs (FIG. 2b; lane 5), while use of both 2′-azido-UTP and 2′-azido-CTP reduced runoff transcription by 11-fold (FIG. 2b, lane 8). With Y639F/H784A use of a single azido-modified NTP reduced run-off transcription by only 40% (FIG. 2b; lanes 10, 11), while use of two 2′-azido-NTPs reduced it by 3-fold (FIG. 2b; lane 12).

HindIII-cut pT75 = test: Run-off transcription with 2′-OMe- or 2′-azido-NTPs on HindIII-cut pT75; type: biochemical
Protocol: as §1
With the pPK5 template, UMP and CMP are not incorporated into the first 9 nt of RNA. Incorporation of non-canonical NMPs during synthesis of the first 9 nt of RNA is expected to cause greater reductions in run-off transcript synthesis because the RNA is readily released from the transcription complex during this initial phase of transcription. Therefore, if incorporation of a non-canonical NMP is slow, the RNA will usually dissociate before the NMP is incorporated. […] To see whether NMPs with bulky 2′-substituents could be incorporated during the initial phase of transcription a Hind-III linearized pT75 (Tabor, S. and Richardson, C. C., “A bacteriophage T7 RNA polymerase/promoter system for controlled exclusive expression of specific genes,” Proc. Natl. Acad. Sci. USA 82:1074-1078, 1985) was used. On this template, UMP is first incorporated at +14 while CMP is incorporated at +6 and +7. In reactions with 2′-OMe-UTP run-off transcript synthesis is reduced 11-fold, 5-fold, and <2-fold with the wild-type, and the Y639F, and Y639F/H784A mutants, respectively (FIG. 2c; lanes 2, 6, 10). However, in reactions with 2′-OMe-CTP run-off transcription is undetectable with the wild-type or Y639F enzymes (FIG. 2c; lanes 3, 4, 7, 8), and is reduced ˜700-fold with Y639F/H784A (FIG. 2c; lanes 11, 12).
Run-off transcript yields in reactions with HindIII-cut pT75 and 2′-azido-UTP are reduced 18-, 8.5-, and <2-fold with wild-type and Y639F and Y639F/H784 mutants, respectively (FIG. 2d; lanes 2, 6, 10), relative to reactions with 4 NTPs (FIG. 2d; lanes 1, 5, 9). In reactions with 2′-azido-CTP, or both 2′-azido-CTP and 2′-azido-UTP, run-off transcription is undetectable with the wild-type enzyme (FIG. 2d; lanes 3, 4), is reduced 65-fold with Y639F (FIG. 2d; lanes 7, 8), but is reduced only 7-fold with Y639F/H784A (FIG. 2d; lanes 11, 12).

T7 Control Template = test: Incorporation of Cy5-UTP or Cy5-dCTP into transcripts (A650/A260); type: biochemical; conditions: FluoroLink Cy5-UTP or Cy5-dCTP in addition to UTP or CTP
Protocol: In separate experiments to evaluate the ability of the Y639F/H784A double mutant versus the Y639F single mutant of T7 RNAP to incorporate nucleoside triphosphates with substituents at other positions than the 2′-position of the sugar, in vitro transcription reactions are carried out with each mutant enzyme using a T7 Control Template from an AmpliScribe™ T7 High Yield Transcription Kit (EPICENTRE) and either FluoroLink™ Cy5-UTP or FluoroLink™ Cy5-dCTP (both from Amersham Biosciences) in the reaction mixture in addition to the corresponding canonical nucleotide, UTP or CTP. Following transcription, the product is precipitated with ammonium acetate and the relative amount of Cy5 dye in the transcripts are determined based on the A650/A260 absorption ratios.

[1] = even in Mn^2+ buffer; cited from earlier work

E. coli DNA-directed DNA polymerase I: E. coli DNA polymerase I
Increase in dNTP Km (RNA as a template): ~100 fold

Y639F/H784A: Y639F/H784A double mutant of T7 RNAP
Reduction of run-off transcript yield relative to 4 NTPs (Bgl II-cut pPK5; 2′-OMe-CTP replacing CTP): 3 fold
Reduction in run-off transcript synthesis (Bgl II-cut pPK5; 2′-OMe-UTP replacing UTP): < 15%
Reduction of run-off transcript yield relative to 4 NTPs (Bgl II-cut pPK5; both 2′-OMe-UTP and 2′-OMe-CTP): 6 fold
Reduction of run-off transcription (Bgl II-cut pPK5; both 2′-azido-UTP and 2′-azido-CTP): 3 fold
Reduction of run-off transcription (Bgl II-cut pPK5; single azido-modified NTP (2′-azido-UTP or 2′-azido-CTP)): 40%
Reduction of run-off transcription (HindIII-cut pT75; 2′-OMe-CTP): ~700 fold
Reduction of run-off transcript synthesis (HindIII-cut pT75; 2′-OMe-UTP): < 2 fold
Reduction of run-off transcription (HindIII-cut pT75; 2′-azido-CTP, or both 2′-azido-CTP and 2′-azido-UTP): 7 fold
Reduction of run-off transcript yields relative to 4 NTPs (HindIII-cut pT75; 2′-azido-UTP): < 2 fold
A650/A260 absorption ratio of transcription products compared to Y639F single mutant (T7 Control Template): significantly higher

B1: T7 DNAP: T7 DNA polymerase (protein, UniProt P00581 1-704, looked up)
DNA-directed DNA polymerase: MIVSDIEANALLESVTKFHCGVIYDYSTAEYVSYRPSDFGAYLDALEAEVARGGLIVFHNGHKYDVPALTKLAKLQLNREFHLPRENCIDTLVLSRLIHSNLKDTDMGLLRSGKLPGKRFGSHALEAWGYRLGEMKGEYKDDFKRMLEEQGEEYVDGMEWWNFNEEMMDYNVQDVVVTKALLEKLLSDKHYFPPEIDFTDVGYTTFWSESLEAVDIEHRAAWLLAKQERNGFPFDTKAIEELYVELAARRSELLRKLTETFGSWYQPKGGTEMFCHPRTGKPLPKYPRIKTPKVGGIFKKPKNKAQREGREPCELDTREYVAGAPYTPVEHVVFNPSSRDHIQKKLQEAGWVPTKYTDKGAPVVDDEVLEGVRVDDPEKQAAIDLIKEYLMIQKRIGQSAEGDKAWLRYVAEDGKIHGSVNPNGAVTGRATHAFPNLAQIPGVRSPYGEQCRAAFGAEHHLDGITGKPWVQAGIDASGLELRCLAHFMARFDNGEYAHEILNGDIHTKNQIAAELPTRDNAKTFIYGFLYGAGDEKIGQIVGAGKERGKELKKKFLENTPAIAALRESIQQTLVESSQWVAGEQQVKWKRRWIKGLDGRKVHVRSPHAALNTLLQSAGALICKLWIIKTEEMLVEKGLKHGWDGDFAYMAWVHDEIQVGCRTEEIAQVVIETAQEAMRWVGDHWNFRCLLDTEGKMGPNWAICH
Selectivity for dNTPs over rNTPs [1]: at least 2,000 fold
